The record followed here is ChEMBL document CHEMBL4680113, “Tigliane Diterpenoids as a New Type of Antiadipogenic Agents Inhibit GRα-Dexras1 Axis in Adipocytes” (J Med Chem, 2019).

Active and inactive are the calls of the source. The rule behind the calls is not given here.

Data set [1] has as its system 3T3-L1. The data set is described as follows: Toxicity in mouse 3T3-L1 cells assessed as reduction in cell viability at 10 uM incubated for 6 days by LDH release assay. The conditions noted are these: 3t3-l1, 144 h, time 6 day. Type of data set: cell-based.
Data set [2] has as its system 3T3-L1. The data set is described as follows: Inhibition of adipogenic cocktail-induced PPARgamma mRNA expression in mouse 3T3-L1 cells at 1 uM after 1 day in presence of GR-alpha siRNA by RT-qPCR analysis. Type of data set: functional, cell-based. In general terms: Real-time PCR tracks product formation cycle by cycle.
Data set [3] deals with 3T3-L1. As to the kind of experiment: Inhibition of methylprednisolone-induced PPARgamma mRNA expression in mouse 3T3-L1 cells at 1 uM by RT-qPCR analysis. Type of data set: functional, cell-based.
The test system of data set [4] is 3T3-L1. As to the kind of experiment: Inhibition of GR-alpha in mouse 3T3-L1 cells assessed as reduction in GR-alpha interaction with PPAR-gamma at 1 uM incubated for 8 hrs by ChIP assay. Format: cell-based.
The test system of data set [5] is 3T3-L1. As to the kind of experiment: Inhibition of adipogenic cocktail-induced ACC protein expression in mouse 3T3-L1 cells incubated for 6 days by Western blot analysis. Format: functional, cell-based. The conditions noted are these: time 6.0 day. For orientation: Immunoblotting shows a protein as a band on a membrane.
For data set [6], the system named is 3T3-L1. The data set is described as follows: Inhibition of adipogenic cocktail-induced PPARgamma protein expression in mouse 3T3-L1 cells incubated for 24 hrs by Western blot analysis. Type of data set: functional, cell-based.
Data set [7] in a line: Selectivity index, ratio of IC50 for cytotoxicity against mouse 3T3-L1 cells to EC50 for lipid lowering activity in mouse 3T3-L1 cells.
Data set [8] has as its system 3T3-L1. The data set is described as follows: Lipid lowering activity in mouse 3T3-L1 cells assessed as reduction in methylprednisolone-induced triglyceride levels at 1 uM incubated for 6 days by GPO-POD assay. The conditions noted are these: time 6.0 day. Format: functional, cell-based.
In data set [9] the test system is 3T3-L1. As to the kind of experiment: Inhibition of adipogenic cocktail-induced FAS protein expression in mouse 3T3-L1 cells incubated for 6 days by Western blot analysis. Type of data set: functional, cell-based. Particulars: time 6.0 day.
In data set [10] the test system is 3T3-L1. As to the kind of experiment: Inhibition of cell differentiation in mouse 3T3-L1 cells assessed as reduction in adipogenic cocktail-induced triglyceride levels at 1 uM incubated for 0 to 3 days by GPO-POD assay. Format: functional, cell-based. The conditions noted are these: time 0-3 day.
The subject of data set [11] is 3T3-L1. As to the kind of experiment: Inhibition of GR-alpha in mouse 3T3-L1 cells assessed as reduction in methylprednisolone-induced Dexras1 mRNA expression at 1 uM incubated for 4 hrs by RT-qPCR analysis. Format: cell-based.
In data set [12] the test system is 3T3-L1. As to the kind of experiment: Inhibition of adipogenic cocktail-induced FAS mRNA expression in mouse 3T3-L1 cells at 1 uM after 6 days in presence of GR-alpha siRNA by RT-qPCR analysis. Type of data set: functional, cell-based. The conditions noted are these: time 6.0 day.
Data set [13] deals with HepG2. As to the kind of experiment: Lipid lowering activity in human HepG2 cells assessed as reduction in high-glucose induced triglyceride levels at 1 uM incubated for 6 days in presence of Dexras1 siRNA by GPO-POD assay. Type of data set: functional, cell-based. The conditions noted are these: time 6.0 day.
Data set [14] has as its system 3T3-L1. As to the kind of experiment: Inhibition of adipogenic cocktail-induced GR-alpha protein expression in mouse 3T3-L1 cells at 1 to 10 uM incubated for 4 to 24 hrs by Western blot analysis. Type of data set: functional, cell-based. Particulars: dose 1-10 µM, time 4-24 hrs.
Data set [15] deals with HepG2. The data set is described as follows: Lipid lowering activity in human HepG2 cells assessed as reduction in high-glucose induced triglyceride levels at 1 uM incubated for 24 hrs by GPO-POD assay. Type of data set: functional, cell-based.
The test system of data set [16] is 3T3-L1. The data set is described as follows: Lipid lowering activity in mouse 3T3-L1 cells assessed as reduction in adipogenic cocktail-induced triglyceride levels at 1 uM incubated for 6 days by GPO-POD assay. Type of data set: functional, cell-based. The conditions noted are these: time 6.0 day.
In data set [17] the test system is 3T3-L1. The data set is described as follows: Inhibition of GR-alpha in mouse 3T3-L1 cells assessed as reduction in adipogenic cocktail-induced Dexras1 mRNA expression at 1 uM incubated for 4 hrs by RT-qPCR analysis. Type of data set: cell-based.

In the case of `CC(=O)O[C@@H]1C(C)=C[C@H]2[C@@H]3C(C)(C)[C@]3(OC(=O)C(C)C)[C@H](OC(=O)c3ccccc3)[C@@H](C)[C@]2(O)[C@@H]2C=C(C)C(=O)[C@@H]12`, in the data set on 3T3-L1 [1], the Activity result was “Non-Toxic”. In addition, the inhibition entry in the data set with 3T3-L1 [2], in the data set with 3T3-L1 [3], in the data set with 3T3-L1 [4], with 3T3-L1 [8], in the data set on 3T3-L1 [10] and in the data set with 3T3-L1 [11] was “Active” in each case. Besides, the inhibition entry with 3T3-L1 [12], with HepG2 [13], in the data set with HepG2 [15], in the data set with 3T3-L1 [16] and in the data set with 3T3-L1 [17] was “Active” throughout. Moreover, the inhibition result in the data set on 3T3-L1 [5], in the data set on 3T3-L1 [6] and in the data set with 3T3-L1 [9] was “Dose-dependent effect” throughout. Besides, the “Selectivity Index” value in data set [7] is recorded as more than 312. In addition, the inhibition result in the data set on 3T3-L1 [14] is “inactive”.
Consider `CC1=C[C@@H]2[C@@H](C1=O)[C@H](O)C(C)=C[C@H]1[C@@H]3C(C)(C)[C@]3(OC(=O)C(C)C)[C@H](OC(=O)c3ccccc3)[C@@H](C)[C@]21O`, for which, in the data set with 3T3-L1 [1], the Activity result was “Non-Toxic”. Further, the inhibition result with 3T3-L1 [2], in the data set with 3T3-L1 [4], in the data set with 3T3-L1 [10], with 3T3-L1 [12], with HepG2 [15] and with 3T3-L1 [16] was “Active” throughout. The inhibition result with 3T3-L1 [5], in the data set with 3T3-L1 [6] and in the data set on 3T3-L1 [9] was “Dose-dependent effect” throughout. Further, the “Selectivity Index” value in data set [7] is reported as 28. The inhibition entry in the data set with 3T3-L1 [14] is “inactive”.
